SMILES strings stand for the structures.

The data set is described as follows: LNP Characteristics (size, PDI, encapsulation efficiency) of LNPs formulated with novel ionizable lipids. The format is physicochemical. The settings on record: LNP formulated with the ionizable lipid, DOPE, Cholesterol, DMG-PEG2000. The protocol:
LNPs formulated using the novel ionizable lipids of the disclosure or control ionizable lipids MC3 and SM-102 were synthesized by mixing the lipid components of the LNP in ethanol at a predetermined molar ratio (ionizable lipid/DOPE/Cholesterol/DMG-PEG2000=30/15/50/1.5) to prepare an organic phase. Sa-mRNA encoding firefly luciferase (LUC) or green fluorescent protein (GFP) was diluted in 50 mM citrate buffer (pH 4.5, Fisher) to prepare an aqueous phase. The sa-mRNA was stored at −80° C. and was thawed on ice prior to use. The ethanol and aqueous phases were mixed at a 1:3 ratio by pipette with the N/P=4.2/1. The resultant LNPs were purified by ultrafiltration (100,000 cut-off, MilliporeSigma™ Amicon™ Ultra-15 Centrifugal Filter Units) at 4° C. prior to transfection into a cell, such as a T-cell.
LNPs formulated using novel ionizable lipids of the disclosure were synthesized using the procedure described in Example 2 and characterized. Table 4 below show the properties of each LNP formulated using a novel ionizable lipid of the disclosure.
Turning to `CCCCCCCCCN(CCCCCCCCC)CCC(=O)N1CN(C(=O)CCN(CCCCCCCCC)CCCCCCCCC)CN(C(=O)CCN(CCCCCCCCC)CCCCCCCCC)C1` [Lipid E2, 1,1′,1″-(1,3,5-triazinane-1,3,5-triyl)tris(3-(dinonylamino)propan-1-one)], the “Avg. Encapsulation Efficiency (EE) %” value turned out to be 95.1%, the “Avg. PDI” value was 0.1 and the “Avg. Size” value is given as 200 nm.

With `CCCCCCCCCCCCCCCC(=O)N(C(CCCCCCCC)CCCCCCCC)C(C(=O)NC1=CCCCC1)C1CCN(CC)CC1` (stereo not drawn) [Lipid P6A2, N-(2-(cyclohex-1-en-1-ylamino)-1-(1-ethylpiperidin-4-yl)-2-oxoethyl)-N-(heptadecan-9-yl)palmitamide], the “Avg. Encapsulation Efficiency (EE) %” value was 90.4%, the “Avg. PDI” value came to 0.12 and the “Avg. Size” value was determined as 190.7 nm.

In the case of `CCCCCCCCCCCCCC(=O)N(CC(CCCCCCCC)CCCCCCCCCC)C(C(=O)NC1CCCCC1)C1CCN(CC)CC1` (stereo not drawn) [Lipid P28D10], the “Avg. Encapsulation Efficiency (EE) %” value was 95.5%, the “Avg. PDI” value is given as 0.10 and the “Avg. Size” value is on record as 188.0 nm.

On to `CCCCCCCCCCCCCCCC(=O)N(C(CCCCCCC)CCCCCCC)C(C(=O)NC1CCCCC1)C1CCN(CC)CC1` (stereo not drawn) [Lipid P30A1, N-(2-(cyclohexylamino)-1-(1-ethylpiperidin-4-yl)-2-oxoethyl)-N-(pentadecan-8-yl)palmitamide], for which the “Avg. Encapsulation Efficiency (EE) %” value was 97.8%, the “Avg. PDI” value is 0.11 and the “Avg. Size” value is on record as 176.6 nm.

In the case of `CCCCCCCCCCCCCCCCC(=O)N(C(CCCCCCC)CCCCCCC)C(CC1CCN(C)CC1)C(=O)NC1CCCCC1` (stereo not drawn) [Lipid P30B7, N-(1-(cyclohexylamino)-3-(1-methylpiperidin-4-yl)-1-oxopropan-2-yl)-N-(pentadecan-8-yl)heptadecanamide], the “Avg. Encapsulation Efficiency (EE) %” value is listed as 91.0%, the “Avg. PDI” value turned out to be 0.10 and the “Avg. Size” value is recorded as 151.6 nm.

As for `CCCCCCCCCCCCCCCCCC(=O)N(C(CCCCCCC)CCCCCCC)C(CC1CCN(C)CC1)C(=O)NC1CCCCC1` (stereo not drawn) [Lipid P30C7, N-(1-(cyclohexylamino)-3-(1-methylpiperidin-4-yl)-1-oxopropan-2-yl)-N-(pentadecan-8-yl)stearamide], the “Avg. Encapsulation Efficiency (EE) %” value amounted to 93.9%, the “Avg. PDI” value came out at 0.11 and the “Avg. Size” value worked out at 166.8 nm.

Consider `CCCCCCCCCCCCCC(=O)N(C(CCCCCCC)CCCCCCC)C(C(=O)NC1CCCCCC1)C1CCN(CC)CC1` (stereo not drawn) [Lipid P38D1, N-(2-(cycloheptylamino)-1-(1-ethylpiperidin-4-yl)-2-oxoethyl)-N-(pentadecan-8-yl)tetradecanamide], for which the “Avg. Encapsulation Efficiency (EE) %” value was 97.4%, the “Avg. PDI” value came out at 0.12 and the “Avg. Size” value is given as 179.1 nm.

Turning to `CCCCCCCCCCCCCC(=O)N(C(CCCCCCC)CCCCCCC)C(CC1CCN(C)CC1)C(=O)NC1CCCCCC1` (stereo not drawn) [Lipid P38D7, N-(1-(cycloheptylamino)-3-(1-methylpiperidin-4-yl)-1-oxopropan-2-yl)-N-(pentadecan-8-yl)tetradecanamide], the “Avg. Encapsulation Efficiency (EE) %” value is listed as 94.8%, the “Avg. PDI” value turned out to be 0.21 and the “Avg. Size” value came to 236.3 nm.

For the compound `CCCCCCCCCCCCCC(=O)N(C(CCCCCCCC)CCCCCCCC)C(CC1CCN(C)CC1)C(=O)NC1CCCCCC1` (stereo not drawn) [Lipid P38D8, N-(1-(cycloheptylamino)-3-(1-methylpiperidin-4-yl)-1-oxopropan-2-yl)-N-(heptadecan-9-yl)tetradecanamide], the “Avg. Encapsulation Efficiency (EE) %” value is reported as 95.4%, the “Avg. PDI” value stood at 0.18 and the “Avg. Size” value is given as 186.9 nm.

Consider `CCCCCCCCCCC(=O)N(CC(CCCCCCCC)CCCCCCCCCC)C(CC1CCN(C)CC1)C(=O)NC1CCCCCC1` (stereo not drawn) [Lipid P40B10, N-(1-(cycloheptylamino)-3-(1-methylpiperidin-4-yl)-1-oxopropan-2-yl)-N-(2-octyldodecyl)undecanamide], for which the “Avg. Encapsulation Efficiency (EE) %” value is 95.8%, the “Avg. PDI” value was determined as 0.14 and the “Avg. Size” value came to 189.9 nm.

`CCCCCCCCCCCC(=O)N(CC(CCCCCCCC)CCCCCCCCCC)C(CC1CCN(C)CC1)C(=O)NC1CCCCCC1` (stereo not drawn) [Lipid P40C10, N-(1-(cycloheptylamino)-3-(1-methylpiperidin-4-yl)-1-oxopropan-2-yl)-N-(2-octyldodecyl)dodecanamide]: the “Avg. Encapsulation Efficiency (EE) %” value is 99.1%, the “Avg. PDI” value worked out at 0.25 and the “Avg. Size” value came to 192.9 nm.

For the compound `CCCCCCCCCCCC(=O)N(C(CCCCCCCCCCC)CCCCCCCCCCC)C(CC1CCN(C)CC1)C(=O)NC1CCCCCC1` (stereo not drawn) [Lipid P40C11, N-(1-(cycloheptylamino)-3-(1-methylpiperidin-4-yl)-1-oxopropan-2-yl)-N-(tricosan-12-yl)dodecanamide], the “Avg. Encapsulation Efficiency (EE) %” value is reported as 96.6%, the “Avg. PDI” value was found to be 0.14 and the “Avg. Size” value amounted to 189.3 nm.

As for `CCCCCCCCCCCCCCC(=O)N(C(CCCCCCC)CCCCCCC)C(CC1CCN(C)CC1)C(=O)NC1CCCCCC1` (stereo not drawn) [Lipid P40D7, N-(1-(cycloheptylamino)-3-(1-methylpiperidin-4-yl)-1-oxopropan-2-yl)-N-(pentadecan-8-yl)pentadecanamide], the “Avg. Encapsulation Efficiency (EE) %” value was determined as 98.2%, the “Avg. PDI” value stood at 0.18 and the “Avg. Size” value worked out at 149.2 nm.

As for `CCCCCCCCCCCCC(=O)N(CC(CCCCCCCCCC)CCCCCCCCCCCC)C(CC1CCN(C)CC1)C(=O)NC(C)(C)C` (stereo not drawn) [Lipid P51C12, N-(1-(tert-butylamino)-3-(1-methylpiperidin-4-yl)-1-oxopropan-2-yl)-N-(2-decyltetradecyl)tridecanamide], the “Avg. Encapsulation Efficiency (EE) %” value is on record as 98.1%, the “Avg. PDI” value was found to be 0.26 and the “Avg. Size” value is listed as 186.5 nm.

On to `CCCCCCCCCCCC(CCCCCCCCCCC)N(C(=O)CCCCCCCCC)C(C(=O)NC(C)(C)C)C1CCN(CC)CC1` (stereo not drawn) [Lipid P53A5, N-(2-(tert-butylamino)-1-(1-ethylpiperidin-4-yl)-2-oxoethyl)-N-(tricosan-12-yl)decanamide], for which the “Avg. Encapsulation Efficiency (EE) %” value amounted to 97.9%, the “Avg. PDI” value came to 0.10 and the “Avg. Size” value came to 173.8 nm.

Consider `CCCCCCCCCCCCC(CCCCCCCCCC)CN(C(=O)CCCCCCCCC)C(C(=O)NC(C)(C)C)C1CCN(CC)CC1` (stereo not drawn) [Lipid P53A6, N-(2-(tert-butylamino)-1-(1-ethylpiperidin-4-yl)-2-oxoethyl)-N-(2-decyltetradecyl)decanamide], for which the “Avg. Encapsulation Efficiency (EE) %” value was 98.3%, the “Avg. PDI” value was found to be 0.16 and the “Avg. Size” value is given as 175.6 nm.

In the case of `CCCCCCCCCCCCC(CCCCCCCCCC)CN(C(=O)CCCCCCCCCC)C(C(=O)NC12CC3CC(CC(C3)C1)C2)C1CCN(CC)CC1` (stereo not drawn) [Lipid P54B6, N-(2-(((1s,3s)-adamantan-1-yl)amino)-1-(1-ethylpiperidin-4-yl)-2-oxoethyl)-N-(2-decyltetradecyl)undecanamide], the “Avg. Encapsulation Efficiency (EE) %” value was 93.4%, the “Avg. PDI” value came to 0.10 and the “Avg. Size” value turned out to be 181.2 nm.

As for `CCCCCCCCCCCCCCCC(=O)N(C(CCCCCCC)CCCCCCC)C(C(=O)NC12CC3CC(CC(C3)C1)C2)C1CCN(CC)CC1` (stereo not drawn) [Lipid P56A1, N-(2-(((1s,3s)-adamantan-1-yl)amino)-1-(1-ethylpiperidin-4-yl)-2-oxoethyl)-N-(pentadecan-8-yl)palmitamide], the “Avg. Encapsulation Efficiency (EE) %” value is recorded as 89.1%, the “Avg. PDI” value is on record as 0.12 and the “Avg. Size” value worked out at 186.3 nm.

Turning to `CCCCCCCCCCCCCCCC(=O)N(C(CCCCCCCC)CCCCCCCC)C(C(=O)NC12CC3CC(CC(C3)C1)C2)C1CCN(CC)CC1` (stereo not drawn) [Lipid P56A2, N-(2-(((1s,3s)-adamantan-1-yl)amino)-1-(1-ethylpiperidin-4-yl)-2-oxoethyl)-N-(heptadecan-9-yl)palmitamide], the “Avg. Encapsulation Efficiency (EE) %” value worked out at 81.5%, the “Avg. PDI” value turned out to be 0.15 and the “Avg. Size” value is reported as 154.4 nm.

Consider `CCCCCCCCCCCCCCCCC(=O)N(C(CCCCCCC)CCCCCCC)C(C(=O)NC12CC3CC(CC(C3)C1)C2)C1CCN(CC)CC1` (stereo not drawn) [Lipid P56B1, N-(2-(((1s,3s)-adamantan-1-yl)amino)-1-(1-ethylpiperidin-4-yl)-2-oxoethyl)-N-(pentadecan-8-yl)heptadecanamide], for which the “Avg. Encapsulation Efficiency (EE) %” value was 90.6%, the “Avg. PDI” value worked out at 0.10 and the “Avg. Size” value is 173.2 nm.

On to `CCCCCCCC/C=C\CCCCCCCC(=O)N(C(CCCCCCC)CCCCCCC)C(C(=O)NC1CCCCCC1)C1CCN(CC)CC1` (stereo not drawn) [Lipid P149A1, N-(2-(cycloheptylamino)-1-(1-ethylpiperidin-4-yl)-2-oxoethyl)-N-(pentadecan-8-yl)oleamide], for which the “Avg. Encapsulation Efficiency (EE) %” value is listed as 92.9%, the “Avg. PDI” value is on record as 0.10 and the “Avg. Size” value is 219 nm.

As to `CCCCCCCC/C=C\CCCCCCCC(=O)N(C(CCCCCCCC)CCCCCCCC)C(C(=O)NC1CCCCCC1)C1CCN(CC)CC1` (stereo not drawn) [Lipid P149A2, N-(2-(cycloheptylamino)-1-(1-ethylpiperidin-4-yl)-2-oxoethyl)-N-(heptadecan-9-yl)oleamide], the “Avg. Encapsulation Efficiency (EE) %” value is 92.0%, the “Avg. PDI” value came to 0.10 and the “Avg. Size” value was found to be 218 nm.

The values above are taken from US12551451B2, “Compositions and methods for delivering molecules” (SunVax mRNA Therapeutics Inc., priority 2023, dated 2026).
